Assay [1] addresses Adenosine receptor A1 (Rattus norvegicus) (UniProt P25099). The assay is described as follows: Antagonist activity against adenosine A1 receptor in rat adipocytes.
The target in assay [2] is Adenosine receptor A2 (Homo sapiens). Nature of the assay: Antagonistic activity against adenosine A2 receptor in human platelets.

pKi: −log10 of the molar value.

A word on the pKi: it is the negative decadic logarithm of the Ki, by convention in mol/L. A high value points to a low Ki. As usually defined, the Ki is a dissociation constant, usually derived from enzyme kinetics or from competition with a known ligand.

With `CCCn1c(=O)c2nc([C@H]3CC[C@H](CNC(C)=O)CC3)[nH]c2n(CCC)c1=O`, the pKi in assay [1] is 8.10.
In assay [2], `CCCn1c(=O)c2nc(CC3CCCC3)[nH]c2n(CCC)c1=O` showed a Ki of more than 10000 nM. In addition, the pKi in assay [1] was 7.16.
Taken in the same sequence, the figures for `CCCNC(=O)C1CCC(c2nc3c([nH]2)c(=O)n(CCC)c(=O)n3CCC)CC1` (centres undefined) were more than 3000 nM and 7.07.
`CCCn1c(=O)c2nc(C3CCC(C(=O)OC)CC3)[nH]c2n(CCC)c1=O` (centres undefined) showed a Ki in assay [2] of 560 nM. In addition, the pKi in assay [1] was 6.89.
Taken in the same sequence, the figures for `CCCn1c(=O)c2nc(NC3CCC3)[nH]c2n(CCC)c1=O` were 120 nM and 8.59.
`CCCn1c(=O)c2nc(C3CCCC(NC(C)=O)C3)[nH]c2n(CCC)c1=O` (centres undefined): the Ki in assay [2] stood at 1000 nM. Further, in assay [1], the pKi was 7.39.
Taken in the same sequence, the figures for `CCCn1c(=O)c2nc(C3=C(C(=O)O)CCC3)[nH]c2n(CCC)c1=O` were more than 10000 nM and less than 5.00.
Molecule `CCCn1c(=O)c2nc(N3CCCC3)[nH]c2n(CCC)c1=O` showed a pKi in assay [1] of 7.12.
In assay [1], `CCCn1c(=O)c2[nH]c(C34CC5CC(CC(C5)C3)C4)nc2n(CCC)c1=O` gave a pKi of 7.09.
For `CCCn1c(=O)c2nc(NC3CCCC3)[nH]c2n(CCC)c1=O`, in assay [2], the Ki worked out at 130 nM. Besides, the pKi in assay [1] is 8.10.
In turn, `CCCn1c(=O)c2nc(N3CCCCC3)[nH]c2n(CCC)c1=O` returned a Ki in assay [2] of 490 nM. The molecule also showed a pKi in assay [1] of 7.66.
On to `CCCn1c(=O)c2nc(C3CCC(CN)CC3)[nH]c2n(CCC)c1=O` (centres undefined), for which the pKi in assay [1] is 7.70.
`CCCn1c(=O)c2nc(C3CCCC(N)C3)[nH]c2n(CCC)c1=O` (centres undefined) registered a Ki in assay [2] of more than 10000 nM. For the same molecule, the pKi in assay [1] is 7.30.
For `CCCn1c(=O)c2nc(C3CC3C)[nH]c2n(CCC)c1=O` (centres undefined) the same measures were more than 10000 nM and 7.96.
Taken in the same sequence, the figures for `CCCn1c(=O)c2nc(C3CCC3C(=O)O)[nH]c2n(CCC)c1=O` (centres undefined) were more than 10000 nM and 6.18.
For `CCCn1c(=O)c2nc(NC3CCCCC3)[nH]c2n(CCC)c1=O` the same measures were 680 nM and 7.85.
In assay [2], `CCCn1c(=O)c2nc(C3CCC(C(=O)O)CC3)[nH]c2n(CCC)c1=O` (stereo in doubt; 1) returned a Ki of more than 10000 nM. Further, in assay [1], the pKi was 6.37.
For `CCCn1c(=O)c2nc(C3CCC(C(=O)O)CC3)[nH]c2n(CCC)c1=O` (stereo in doubt; 2) the same measures were 1500 nM and 7.23.
In turn, `CCCn1c(=O)c2nc(C3CCCCC3C(=O)O)[nH]c2n(CCC)c1=O` (stereo in doubt; 3) came in with a Ki in assay [2] of more than 10000 nM. The molecule further showed a pKi in assay [1] of less than 5.00.
For `CCCn1c(=O)c2nc(C3CCCCC3C(=O)O)[nH]c2n(CCC)c1=O` (stereo in doubt; 4) the same measures were more than 3000 nM and less than 5.52.
`CCCn1c(=O)c2[nH]c(C3CCC(N)CC3)nc2n(CCC)c1=O` (stereo in doubt; 6) gave a pKi in assay [1] of 7.05.
Same read-out and setting: next, `CCCn1c(=O)c2[nH]c(C3CCC(N)CC3)nc2n(CCC)c1=O` (stereo in doubt; 7): 6.80.
`CCCn1c(=O)c2nc(C3CCC(NC(C)=O)CC3)[nH]c2n(CCC)c1=O` (stereo in doubt; 9): the Ki in assay [2] was more than 10000 nM. The same molecule gave a pKi in assay [1] of 7.92.
Taken in the same sequence, the figures for `CCCn1c(=O)c2nc(C3CCC(NC(C)=O)CC3)[nH]c2n(CCC)c1=O` (stereo in doubt; 10) were 1000 nM and 7.15.
For `CCCn1c(=O)c2nc(C3CCC(C(=O)N(C)CCN(C)C)CC3)[nH]c2n(CCC)c1=O` (stereo in doubt; 14) the same measures were 260 nM and 7.77.
In assay [2], `CCCn1c(=O)c2nc(C3CCC(C(=O)N(C)CCN(C)C)CC3)[nH]c2n(CCC)c1=O` (stereo in doubt; 15) returned a Ki of 450 nM. In addition, in assay [1], the pKi was 7.07.
For `CCCn1c(=O)c2nc(C3CCCC3C(=O)O)[nH]c2n(CCC)c1=O` (stereo in doubt; 17) the same measures were more than 10000 nM and 6.85.
For `CCCn1c(=O)c2nc(C3CCCC3C(=O)N(C)CCN(C)C)[nH]c2n(CCC)c1=O` (stereo in doubt; 19) the same measures were more than 3000 nM and less than 5.52.
Take `CCCn1c(=O)c2nc(C3CCCC3C(=O)N(C)CCN(C)C)[nH]c2n(CCC)c1=O` (stereo in doubt; 20): the Ki in assay [2] is more than 10000 nM. The pKi in assay [1] is 7.28.
Regarding `CCCn1c(=O)c2nc(C3CCCC3C(=O)O)[nH]c2n(CCC)c1=O` (trans isomer), the Ki in assay [2] is more than 10000 nM. Further, in assay [1], the pKi was 7.00.

(Values after ChEMBL document CHEMBL1125093, “Structure-activity relationships of 8-cycloalkyl-1,3-dipropylxanthines as antagonists of adenosine receptors” (J Med Chem, 1990).)
